Data on 16 compounds can be found in patent US8785453B2, “Arylpiperazine-containing purine derivatives and uses thereof” (Green Cross Corporation, priority 2009, dated 2014).

Molecules are shown by their SMILES.

Assay [1] concerns mice. The experiment in a line: Anti-depressants activity in forced swimming test. Format: in vivo. As to conditions: 60 min before testing.
Protocol: Each mouse was placed in a 25 cm glass cylinder (10 cm diameter) containing 15 cm of water maintained at 22±1, and was forced to swim for 10 min. 24 hours later, the mouse was replaced into the cylinder and the total duration of immobility was recorded during the last 5 min of the 6-min testing period. Mice are judged immobile when they float in an upright position and make only small movements to keep their head above water. Test drugs were suspended in 3% Tween 80 solution, and administered orally (po) 60 min before the testing.
For assay [2], the target named is T1, human recombinant serotonin 5-HT2A receptor (Homo sapiens, UniProt P28223).
T1 construct: purchased PerkinElmer Life and Analytical Sciences, USA; host or cells: CHO-K1 cells
The experiment in a line: Binding affinity for serotonin 5-HT2A receptor ([3H]Ketanserin). As to conditions: CHO-K1 cells, 1 nM [3H]Ketanserin; read-out: binding affinity (IC50) 5-HT2A. How it is done:
(§1) Receptor binding affinities of the compounds for serotonin receptors were measured by the method described in the literature (see [Park W K et al., Pharmacol Biochem Behav., 82(2), 361-372 (2005)].
For serotonin 5-HT2A binding, an aliquot of human recombinant serotonin 5-HT2A receptor (PerkinElmer Life and Analytical Sciences, USA) expressed in CHO-K1 cells (5 μg/well) and 1 nM [^3H]Ketanserin (PerkinElmer) were used in the presence of mianserin (20 μM) as a nonspecific. The reaction mixture was incubated for 60 min […] 50 mM Tris-HCl (pH 7.4) buffer containing 4 mM CaCl2 and 0.1% ascorbic acid, and harvested through filtermate A glass fiber filter (Wallac, Finland) presoaked in 0.5% polyethyleneimine (PEI) by microbeta filtermate-96 harvester (PerkinElmer) to terminate the reaction, and then washed with ice cold 50 mM Tris-HCl buffer solution (pH 7.4). The filter was then covered with MeltiLex, sealed in a sample bag, dried in an oven. The radioactivity retained in the filter was finally counted using MicroBeta Plus (Wallac).
(§2) The binding affinity (IC50) of a compound for the receptor was calculated by computerized nonlinear regression analysis (GraphPad Prism Program, San Diego, USA) using 7-8 varied concentrations of the compound run in duplicate tubes.

The target of assay [3] is T2, human recombinant 5-HT2C receptor (Homo sapiens, UniProt P28335).
T2 construct: purchased PerkinElmer
T2 sequence (P28335 33-458): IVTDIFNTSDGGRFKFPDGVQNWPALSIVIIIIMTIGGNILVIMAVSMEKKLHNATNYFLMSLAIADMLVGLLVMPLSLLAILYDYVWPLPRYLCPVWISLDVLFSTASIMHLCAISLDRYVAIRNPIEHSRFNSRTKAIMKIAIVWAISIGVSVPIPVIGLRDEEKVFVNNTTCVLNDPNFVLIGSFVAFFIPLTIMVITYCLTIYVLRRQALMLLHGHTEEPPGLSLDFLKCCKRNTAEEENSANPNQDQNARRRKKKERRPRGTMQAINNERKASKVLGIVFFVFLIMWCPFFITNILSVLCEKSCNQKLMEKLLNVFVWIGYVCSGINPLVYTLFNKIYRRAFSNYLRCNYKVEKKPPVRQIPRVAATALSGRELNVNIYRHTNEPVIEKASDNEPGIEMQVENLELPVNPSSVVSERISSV
The experiment in a line: Binding affinity for serotonin 5-HT2C receptor ([3H]Mesulergine). The conditions noted are these: CHO-K1 membranes, 1.3 nM [3H]Mesulergine; read-out: binding affinity (IC50) 5-HT2C. How it is done:
as §1, §2
For serotonin 5-HT2C binding, frozen membranes from stable CHO-K1 cell line expressing the human recombinant 5-HT2C receptor (PerkinElmer, 4 μg/well), [^3H]Mesulergine (Amersham, 1.3 nM) and test compounds were added into 50 mM Tris-HCl (pH 7.4) buffer containing 0.1% ascorbic acid and 4 mM CaCl2. Nonspecific binding was determined using 100 μM mianserin. The incubations were performed for 60 min at 27, and these were terminated by rapid filtration through filtermate A glass fiber filter presoaked in 0.5% PEI.

Assay [4] deals with T3, human serotonin transporter (Homo sapiens, UniProt P31645).
T3 construct: purchased PerkinElmer; host or cells: HEK-293 cells
In words: Binding affinity for serotonin transporter ([3H]Imipramine). The conditions noted are these: HEK-293 membrane, 2 nM [3H]Imipramine; read-out: binding affinity Serotonin Transporter. As to the method:
For serotonin transporter binding assays, a reaction mixture with a final volume of 0.25 ml was prepared by mixing a test compound, human serotonin transporter membrane expressed in HEK-293 cells (PerkinElmer, 5 μg/well), [^3H] Imipramine (PerkinElmer, 2 nM) and 50 mM Tris-HCl (pH 7.4) buffer containing 120 mM NaCl and 5 mM KCl. The reaction mixture was incubated for 30 min at 27, and harvested through filtermate A glass fiber filter presoaked in 0.5% PEI with ice cold 50 mM Tris-HCl buffer (pH 7.4) containing 0.9% NaCl.

T1 sequence (P28223 whole entry): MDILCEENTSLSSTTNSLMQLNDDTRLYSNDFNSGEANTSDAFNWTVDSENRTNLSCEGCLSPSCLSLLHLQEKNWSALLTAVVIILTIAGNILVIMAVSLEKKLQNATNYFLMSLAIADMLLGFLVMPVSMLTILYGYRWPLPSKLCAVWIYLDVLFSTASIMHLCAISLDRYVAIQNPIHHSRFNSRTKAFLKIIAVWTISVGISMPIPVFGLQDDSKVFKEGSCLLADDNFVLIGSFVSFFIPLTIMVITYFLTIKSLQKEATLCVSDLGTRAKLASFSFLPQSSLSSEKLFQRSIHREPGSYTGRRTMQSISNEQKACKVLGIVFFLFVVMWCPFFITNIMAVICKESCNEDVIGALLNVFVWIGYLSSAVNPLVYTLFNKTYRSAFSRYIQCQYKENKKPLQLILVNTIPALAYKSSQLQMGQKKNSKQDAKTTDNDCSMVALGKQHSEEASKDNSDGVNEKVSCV
T3 sequence (P31645 whole entry): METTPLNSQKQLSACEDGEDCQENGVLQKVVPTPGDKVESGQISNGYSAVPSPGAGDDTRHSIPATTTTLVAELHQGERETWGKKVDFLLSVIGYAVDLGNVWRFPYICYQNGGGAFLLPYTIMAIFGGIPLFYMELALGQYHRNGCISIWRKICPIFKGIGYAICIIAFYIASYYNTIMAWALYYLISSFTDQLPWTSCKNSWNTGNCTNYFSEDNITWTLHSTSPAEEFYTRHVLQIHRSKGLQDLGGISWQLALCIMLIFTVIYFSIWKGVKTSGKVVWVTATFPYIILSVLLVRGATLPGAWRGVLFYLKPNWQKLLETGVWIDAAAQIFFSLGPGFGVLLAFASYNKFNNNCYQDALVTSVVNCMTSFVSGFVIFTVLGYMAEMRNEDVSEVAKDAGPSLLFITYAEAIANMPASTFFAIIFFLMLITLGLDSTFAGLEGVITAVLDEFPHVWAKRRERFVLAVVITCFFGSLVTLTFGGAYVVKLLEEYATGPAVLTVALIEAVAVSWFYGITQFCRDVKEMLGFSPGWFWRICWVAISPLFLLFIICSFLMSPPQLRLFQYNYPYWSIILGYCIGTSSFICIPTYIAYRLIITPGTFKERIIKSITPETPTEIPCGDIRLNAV

Consider `Cc1cccc(N2CCN(CCCNc3ncnc4c3nc(-c3ccccc3)n4C)CC2)c1C` [Example 23, N-(3-(4-(2,3-dimethylphenyl)piperazin-1-yl)propyl)-9-methyl-8-phenyl-9H-purine-6-amine], for which the “Immobility in forced swimming test” value in assay [1] (25 mg/kg po) was found to be 99.59 ± 6.34%. The figures for the IC50 in assay [2], in assay [3] and in assay [4] were 36 nM, 76 nM and 106 nM, respectively.
Turning to `Cc1cccc(N2CCN(CCCNc3ncnc4c3nc(C)n4C)CC2)c1C` [Example 28, N-(3-(4-(2,3-dimethylphenyl)piperazin-1-yl)propyl)-8,9-dimethyl-9H-purine-6-amine], in assay [1] (25 mg/kg po), the “Immobility in forced swimming test” value came out at 87.65 ± 7.08%. In addition, the IC50 turned out to be 65 nM in assay [2], 430 nM in assay [3] and 85 nM in assay [4].
Turning to `Cc1cccc(N2CCN(CCCNc3ncnc4c3ncn4-c3ccc4c(c3)OCO4)CC2)c1C` [Example 34, 9-(benzo[d][1,3]dioxol-5-yl)-N-(3-(4-(2,3-dimethylphenyl)piperazin-1-yl)propyl)-9H-purine-6-amine], the “Immobility in forced swimming test” value in assay [1] (25 mg/kg po) is 76.92 ± 10.04%; in assay [1] (50 mg/kg po), 96.83 ± 11.02%. For the same compound, the IC50 is 54 nM in assay [2], 230 nM in assay [3] and 6 nM in assay [4].
Take `Cc1cccc(N2CCN(CC(O)CNc3ncnc4c3nc(C)n4-c3ccc4c(c3)OCO4)CC2)c1C` (centres unmarked) [Example 35, 1-(9-(benzo[d][1,3]dioxol-5-yl)-8-methyl-9H-purin-6-ylamino)-3-(4-(2,3-dimethylphenyl)piperazin-1-yl)propan-2-ol]: in assay [1] (25 mg/kg po), the “Immobility in forced swimming test” value was determined as 87.36 ± 6.89%. The IC50 is 106 nM in assay [2], 789 nM in assay [3] and 27 nM in assay [4].
For the compound `Cc1cccc(N2CCN(CCCNc3ncnc4c3nc(C)n4-c3ccc4c(c3)OCO4)CC2)c1C` [Example 36, 9-(benzo[d][1,3]dioxol-5-yl)-N-(3-(4-(2,3-dimethylphenyl)piperazin-1-yl)propyl)-8-methyl-9H-purine-6-amine], the “Immobility in forced swimming test” value in assay [1] (25 mg/kg po) worked out at 79.93 ± 13.23%; in assay [1] (50 mg/kg po) it was 86.77 ± 11.28%. Besides, the figures for the IC50 in assay [2], in assay [3] and in assay [4] were 29 nM, 285 nM and 4 nM, respectively.
Turning to `Cc1cccc(N2CCN(CC(O)CNc3ncnc4c3nc(C(C)(C)C)n4C)CC2)c1C` (centres unmarked) [Example 38, 1-(8-tert-butyl-9-methyl-9H-purin-6-ylamino)-3-(4-(2,3-dimethylphenyl)piperazin-1-yl)propan-2-ol], the figures for the “Immobility in forced swimming test” value in assay [1] (25 mg/kg po) and in assay [1] (50 mg/kg po) were 74.86 ± 9.75% and 64.14 ± 10.74%, respectively. The results for the IC50 in assay [2], in assay [3] and in assay [4] were 404 nM, 1590 nM and 19 nM, respectively.
On to `CCc1nc2c(NCCCN3CCN(c4cccc(C)c4C)CC3)ncnc2n1-c1ccc2c(c1)OCO2` [Example 39, 9-(benzo[d][1,3]dioxol-5-yl)-N-(3-(4-(2,3-dimethylphenyl)piperazin-1-yl)propyl)-8-ethyl-9H-purine-6-amine], for which, in assay [1] (25 mg/kg po), the “Immobility in forced swimming test” value is reported as 88.94 ± 5.41%. Also, the IC50 came to 33 nM in assay [2], 328 nM in assay [3] and 21 nM in assay [4].
Turning to `CCc1nc2c(NCC(O)CN3CCN(c4cccc(C)c4C)CC3)ncnc2n1-c1ccc2c(c1)OCO2` (centres unmarked) [Example 40, 1-(9-(benzo[d][1,3]dioxol-5-yl)-8-ethyl-9H-purin-6-ylamino)-3-(4-(2,3-dimethylphenyl)piperazin-1-yl)propan-2-ol], the “Immobility in forced swimming test” value in assay [1] (25 mg/kg po) worked out at 98.20 ± 10.00%. In addition, the IC50 is 125 nM in assay [2], 713 nM in assay [3] and 18 nM in assay [4].
As to `Cc1cccc(N2CCN(CCCNc3ncnc4c3ncn4-c3ccc4c(c3)OCCO4)CC2)c1C` [Example 41, 9-(2,3-dihydrobenzo[b][1,4]dioxin-6-yl)-N-(3-(4-(2,3-dimethylphenyl)piperazin-1-yl)propyl)-9H-purine-6-amine], in assay [1] (25 mg/kg po), the “Immobility in forced swimming test” value came out at 105.95 ± 4.92%. Moreover, the IC50 in assay [2] stood at 16 nM; in assay [3], 224 nM; in assay [4], 7 nM.
In the case of `Cc1cccc(N2CCN(CC(O)CNc3ncnc4c3ncn4-c3ccc4c(c3)OCCO4)CC2)c1C` (centres unmarked) [Example 42, 1-(9-(2,3-dihydrobenzo[b][1,4]dioxin-6-yl)-9H-purin-6-ylamino)-3-(4-(2,3-dimethylphenyl)piperazin-1-yl)propan-2-ol], the “Immobility in forced swimming test” value in assay [1] (25 mg/kg po) came out at 86.65 ± 6.40%. Moreover, the IC50 in assay [2] is 40 nM; in assay [3] it was 560 nM; in assay [4] it was 8 nM.
Regarding `Cc1cccc(N2CCN(CCCNc3ncnc4c3nc(C)n4-c3ccc4c(c3)OCCO4)CC2)c1C` [Example 43, 9-(2,3-dihydrobenzo[b][1,4]dioxin-6-yl)-N-(3-(4-(2,3-dimethylphenyl)piperazin-1-yl)propyl)-8-methyl-9H-purine-6-amine], the “Immobility in forced swimming test” value in assay [1] (25 mg/kg po) amounted to 81.26 ± 11.85%. The IC50 in assay [2] turned out to be 14 nM; in assay [3], 118 nM; in assay [4] it was 16 nM.
As for `Cc1cccc(N2CCN(CC(O)CNc3ncnc4c3nc(C)n4-c3ccc4c(c3)OCCO4)CC2)c1C` (centres unmarked) [Example 44, 1-(9-(2,3-dihydrobenzo[b][1,4]dioxin-6-yl)-8-methyl-9H-purin-6-ylamino)-3-(4-(2,3-dimethylphenyl)piperazin-1-yl)propan-2-ol], the “Immobility in forced swimming test” value in assay [1] (25 mg/kg po) is recorded as 80.41 ± 7.04%. Moreover, the results for the IC50 in assay [2], in assay [3] and in assay [4] were 54 nM, 510 nM and 65 nM, respectively.
Turning to `CCc1nc2c(NCCCN3CCN(c4cccc(C)c4C)CC3)ncnc2n1-c1ccc2c(c1)OCCO2` [Example 45, 9-(2,3-dihydrobenzo[b][1,4]dioxin-6-yl)-N-(3-(4-(2,3-dimethylphenyl)piperazin-1-yl)propyl)-8-ethyl-9H-purine-6-amine], in assay [1] (25 mg/kg po), the “Immobility in forced swimming test” value is listed as 97.64 ± 7.25%. Besides, the IC50 in assay [2] amounted to 14 nM; in assay [3], 151 nM; in assay [4], 49 nM.
In the case of `Cc1cccc(N2CCN(CCCNc3ncnc4c3nc(C)n4-c3ccc(F)cc3)CC2)c1C` [Example 49, N-(3-(4-(2,3-dimethylphenyl)piperazin-1-yl)propyl)-9-(4-fluorophenyl)-8-methyl-9H-purine-6-amine], the “Immobility in forced swimming test” value in assay [1] (25 mg/kg po) came out at 81.07 ± 7.11%. For the same compound, the values for the IC50 in assay [2], in assay [3] and in assay [4] were 47 nM, 364 nM and 62 nM, respectively.
With `CCc1nc2c(NCCCN3CCN(c4cccc(C)c4C)CC3)ncnc2n1-c1ccc(F)cc1` [Example 51, N-(3-(4-(2,3-dimethylphenyl)piperazin-1-yl)propyl)-8-ethyl-9-(4-fluorophenyl)-9H-purine-6-amine], the “Immobility in forced swimming test” value in assay [1] (25 mg/kg po) stood at 99.44 ± 10.28%. Besides, the IC50 amounted to 66 nM in assay [2], 423 nM in assay [3] and 19 nM in assay [4].
In the case of `Cc1cccc(N2CCN(CCNc3ncnc4c3nc(C)n4-c3ccc(F)cc3)CC2)c1C` [Example 55, N-(2-(4-(2,3-dimethylphenyl)piperazin-1-yl)ethyl)-9-(4-fluorophenyl)-8-methyl-9H-purine-6-amine], the “Immobility in forced swimming test” value in assay [1] (25 mg/kg po) amounted to 70.53 ± 11.73%; in assay [1] (50 mg/kg po) it was 78.41 ± 8.11%. Moreover, the results for the IC50 in assay [2], in assay [3] and in assay [4] were 31.1 nM, 129 nM and 518 nM, respectively.
